{
  "source": "paper PMC7369900",
  "about": "(International Journal of Molecular Sciences, 2020)",
  "experiment_in_all_cases": "microbe, parasite or virus in culture",
  "key": {"C. albicans SC 5314": {"system": "C. albicans SC 5314", "details": "Candida albicans, SC5314"}, "C. albicans Gu4": {"system": "C. albicans Gu4", "details": "Candida albicans"}, "C. krusei DSM 6128": {"system": "C. krusei DSM 6128", "details": "Pichia kudriavzevii, DSM6128"}, "C. albicans Gu5": {"system": "C. albicans Gu5", "details": "Candida albicans"}, "[1]": {"system": "C. albicans Δopt1Δopt5Δptr2Δptr22", "details": "Candida albicans"}, "C. glabrata DSM 11226": {"system": "C. glabrata DSM 11226", "details": "Nakaseomyces glabratus, DSM11226"}},
  "data": [
    {"compound": "OC(Cn1cncn1)(Cn1cncn1)c1ccc(F)cc1F", "note": "[FLU, Fluconazole]", "values": [
      {"measurement": "MIC50", "setting": "C. albicans SC 5314", "result": 50, "unit": "µM"},
      {"measurement": "MIC90", "setting": "C. albicans SC 5314", "result": 100, "unit": "µM"},
      {"measurement": "MIC50", "setting": "C. albicans Gu4", "result": 50, "unit": "µM"},
      {"measurement": "MIC50", "setting": "C. krusei DSM 6128", "result": 50, "unit": "µM"},
      {"measurement": "MIC50", "setting": "C. albicans Gu5", "result": "> 200", "unit": "µM"},
      {"measurement": "MIC50", "setting": "[1]", "result": 50, "unit": "µM"},
      {"measurement": "MIC90", "setting": "[1]", "result": 100, "unit": "µM"},
      {"measurement": "MIC50", "setting": "C. glabrata DSM 11226", "result": 100, "unit": "µM"}
    ]}
  ]
}
